One assay addresses T1, KCNQ2/3 channels (Homo sapiens, UniProt O43525+O43526).
T1 construct: expressed in transfected cells
Description: Fluorescence assay using a voltage sensitive dye (fluorimetry). Format: cell-based. As to conditions: CHO-K1 cells expressing KCNQ2/3 channels; for EC50: agonistic activity; for Emax: relative to retigabine = 100%, read-out: Fluorimetry % efficacy (retigabine = 100%). As to the method: Fluorescence Assay using a Voltage Sensitive Dye
Human CHO—K1 cells expressing KCNQ2/3 channels are cultivated adherently at 37° C., 5% CO2 and 95% humidity in cell culture bottles (e.g. 80 cm^2 TC flasks, Nunc) with DMEM-high glucose (Sigma Aldrich, D7777) including 10% FCS (PAN Biotech, e.g. 3302-P270521) or alternatively MEM Alpha Medium (1×, liquid, Invitrogen, #22571), 10% fetal calf serum (FCS) (Invitrogen, #10270-106, heat-inactivated) and the necessary selection antibiotics.
Before being sown out for the measurements, the cells are washed with a 1×DPBS buffer without Ca^2+/Mg^2+ (e.g. Invitrogen, #14190-094) and detached from the bottom of the culture vessel by means of Accutase (PAA Laboratories, #L11-007) (incubation with Accutase for 15 min at 37° C.). The cell count then present is determined using a CASY™ cell counter (TCC model, Schärfe System) in order subsequently to apply, depending on the density optimization for the individual cell line, 20,000-30,000 cells/well/100 μl of the described nutrient medium to 96-well measuring plates of the Corning™ CellBIND™ type (Flat Clear Bottom Black Polystyrene Microplates, #3340). Incubation is then carried out for one hour at room temperature, without gassing or adjusting the humidity, followed by incubation for 24 hours at 37° C., 5% CO2 and 95% humidity.
The voltage-sensitive fluorescent dye from the Membrane Potential Assay Kit (Red™ Bulk format part R8123 for FLIPR, MDS Analytical Technologies™) is prepared by dissolving the contents of a vessel Membrane Potential Assay Kit Red Component A in 200 ml of extracellular buffer (ES buffer, 120 mM NaCl, 1 mM KCl, 10 mM HEPES, 2 mM CaCl2, 2 mM MgCl2, 10 mM glucose; pH 7.4). After removal of the nutrient medium, the cells are washed with 200 μl of ES buffer, then covered with a layer of 100 μl of the dye solution prepared above and incubated for 45 min at room temperature with the exclusion of light.
The fluorescence measurements are carried out with a BMG Labtech FLUOstar™, BMG Labtech NOVOstar™ or BMG Labtech POLARstar™ instrument (525 nm excitation, 560 nm emission, Bottom Read mode). After incubation of the dye, 50 μl of the test substances in the desired concentrations, or 50 μl of ES buffer for control purposes, are introduced into separate cavities of the measuring plate and incubated for 30 min at room temperature while being shielded from light. The fluorescence intensity of the dye is then measured for 5 min and the fluorescence value F1 of each well is thus determined at a given, constant time. 15 μl of a […] KCl solution ([…]) are then added to each well. The change in fluorescence is subsequently measured until all the relevant measured values have been obtained (mainly 5-30 min). At a given time after KCl application, a fluorescence value F2 is determined, in this case at the time of the fluorescence peak.
For calculation, the fluorescence intensity F2 is compared with the fluorescence intensity F1, and the agonistic activity of the target compound on the potassium channel is determined therefrom. F2 and F1 are calculated as follows: […]
In order to determine whether a substance has agonistic activity,
A substance has an agonistic activity on the potassium channel when
[formula] it is possible to conclude that a target compound has agonistic activity if an increase in
Calculations of EC50 values are carried out with the aid of ‘Prism v4.0’ software (GraphPad Software™).

Assay [1] relates to formalin-induced pain behaviour. Description: Formalin test, mouse (phase 2, chronic pain component). As to conditions: change in percent compared with vehicle control. Format: in vivo. On the procedure: Formalin Test, Mouse The formalin test (Dubuisson, D. and Dennis, S. G., 1977, Pain, 4, 161-174) represents a model for both acute and chronic pain. By means of a single formalin injection into the dorsal side of a rear paw, a biphasic nociceptive reaction is induced in freely mobile test animals; the reaction is detected by observing three behaviour patterns which are clearly distinguishable from one another. The reaction is two-phase: phase 1=immediate reaction (duration up to 10 min; shaking of the paw, licking), phase 2=late reaction (after a rest phase; likewise shaking of the paw, licking; duration up to 60 min). The 1st phase reflects a direct stimulation of the peripheral nocisensors with high spinal nociceptive input (acute pain phase); the 2nd phase reflects a spinal and peripheral hypersensitization (chronic pain phase). In the studies described here, the chronic pain component (phase 2) has been evaluated. Formalin in a volume of 20 μl and a concentration of 1% is administered subcutaneously into the dorsal side of the right rear paw of each animal. The specific changes in behaviour, such as lifting, shaking or licking of the paw (score 3, Dubuisson & Dennis, 1977), are observed and recorded in the observation period of 21 to 24 minutes following the formalin injection. The behaviour of the animals after administration of the substance (n=10 per dose of substance) was compared with a control group which received vehicle (n=10). On the basis of the quantification of the pain behaviour, the action of the substance in the formalin test was determined as the change in percent compared with the control. The ED50 calculations (ED50=mean effective dose) were carried out by means of regression analysis according to the method of Litchfield and Wilcoxon (Litchfield, J. T., Wilcoxon, J. J., 1949, J. Pharmacol. Exp. Ther. 96, 99—113). The time of administration of the compound before the formalin injection was chosen as 5 min in the case of intravenous administration and 30 min in the case of oral administration.

Usually EC50 stands for the concentration that produces a half-maximal response. A low value points to greater potency.

SMILES strings stand for the structures.

As to `CCSc1nc2ccccc2cc1NC(=O)CCC1CCCC1` [Example 15, 3-cyclopentyl-N-(2-ethylsulfanyl-quinolin-3-yl)-propionamide], at KCNQ2/3 channels, it took 82 nM to reach a half-maximal effect (EC50) and the Emax turned out to be 143%. For the same compound, in assay [1] (1 mg/kg), the “Formalin Test mouse IV effect @ dose [mg/kg]” value is 17% @ 1.
As for `CCSc1nc2cc(C(F)(F)F)ccc2cc1NC(=O)Cc1cccs1` [Example 10, N-[2-Ethylsulfanyl-7-(trifluoromethyl)quinolin-3-yl]-2-thiophen-2-yl-acetamide], at KCNQ2/3 channels, the EC50 was determined as 1150 nM and the Emax was found to be 57%.
The matching figures for `CCSc1nc2ccccc2cc1NC(=O)CC1CCCCC1` [Example 13, 2-Cyclohexyl-N-(2-ethylsulfanyl-quinolin-3-yl)-acetamide]: 150 nM and 101%.
Taken in the same sequence, the figures for `CCSc1nc2cc(C(F)(F)F)ccc2cc1NC(=O)CC1CC2CCC1C2` (stereo not shown) [Example 16, 2-(5-bicyclo[2.2.1]heptanyl)-N-[2-ethylsulfanyl-7-(trifluoromethyl)-quinolin-3-yl]-acetamide] were 647 nM and 66%.
Taken in the same sequence, the figures for `CCSc1nc2ccccc2cc1NC(=O)CC1CC2CCC1C2` (stereo not shown) [Example 14, 2-(5-bicyclo[2.2.1]heptanyl)-N-(2-ethylsulfanyl-quinolin-3-yl)-acetamide] were 204 nM and 179%.
For the compound `O=C(Cc1cccs1)Nc1cc2ccccc2nc1SCCS(=O)(=O)c1ccccc1` [Example 2, N-(2-(2-(phenylsulfonyl)ethylthio)quinolin-3-yl)-2-(thiophen-2-yl)acetamide], at KCNQ2/3 channels, a half-maximal response (EC50) required 67 nM and the Emax amounted to 80%.
Taken in the same sequence, the figures for `O=C(CC1CCCCC1)Nc1cc2ccccc2nc1SCCS(=O)(=O)c1ccccc1` [Example 1, 2-cyclohexyl-N-(2-(2-(phenylsulfonyl)ethylthio)quinolin-3-yl)acetamide] were 253 nM and 80%.
Taken in the same sequence, the figures for `CCSc1nc2cc(C(F)(F)F)ccc2cc1NC(=O)CCC1CCCC1` [Example 12, 3-cyclopentyl-N-[2-ethylsulfanyl-7-(trifluoromethyl)-quinolin-3-yl]propionamide] were 5020 nM and 62%.
Turning to `CCSc1nc2ccccc2cc1NC(=O)CC(C)(C)C` [Example 9, N-(2-(ethylthio)quinolin-3-yl)-3,3-dimethylbutanamide], at KCNQ2/3 channels, it took 414 nM to reach a half-maximal effect (EC50) and the Emax amounted to 142%.
Consider `CCSc1nc2cc(C(F)(F)F)ccc2cc1NC(=O)CC(C)(C)C` [Example 11, N-[2-ethylsulfanyl-7-(trifluoromethyl)-quinolin-3-yl]-3,3-dimethyl-butyramide], for which the Emax at KCNQ2/3 channels is 35%.
As to `O=C(Cc1cccs1)Nc1cc2ccccc2nc1SCCSc1ccccc1` [Example 6, N-(2-(2-(phenylthio)ethylthio)quinolin-3-yl)-2-(thiophen-2-yl)acetamide], the Emax at KCNQ2/3 channels turned out to be 25%.
On to `CCCCCSc1nc2ccccc2cc1NC(=O)Cc1cccs1` [Example 4, N-(2-(pentylthio)quinolin-3-yl)-2-(thiophen-2-yl)acetamide], for which, on KCNQ2/3 channels, it took 107 nM to reach a half-maximal effect (EC50) and the Emax was 60%.
Consider `CCSc1nc2cc(C(F)(F)F)ccc2c(C)c1NC(=O)CCC1CCCC1` [Example 17, 3-cyclopentyl-N-[2-ethylsulfanyl-4-methyl-7-(trifluoromethyl)-quinolin-3-yl]-propionamide], for which, at KCNQ2/3 channels, it took 66 nM to reach a half-maximal effect (EC50) and the Emax was 107%. Moreover, the “Formalin Test mouse IV effect @ dose [mg/kg]” value in assay [1] (0.68 mg/kg) is given as 90% @ 0.68.
Take `O=C(CCC1CCCCC1)Nc1cc2ccccc2nc1SCCS(=O)(=O)c1ccccc1` [Example 3, 3-Cyclohexyl-N-(2-(2-(phenylsulfonyl)ethylthio)quinolin-3-yl)propanamide]: on KCNQ2/3 channels, the response was half-maximal at 174 nM (EC50) and the Emax was 97%.
With `CCSc1nc2ccccc2cc1NC(=O)Cc1cccs1` [Example 7, N-(2-(ethylthio)quinolin-3-yl)-2-(thiophen-2-yl)acetamide], on KCNQ2/3 channels, a half-maximal response (EC50) required 156 nM and the Emax stood at 93%. The “Formalin Test mouse IV effect @ dose [mg/kg]” value in assay [1] (1 mg/kg) turned out to be 24% @ 1.
The matching figures for `CCSc1nc2cc(C(F)(F)F)ccc2c(C)c1NC(=O)Cc1cccs1` [Example 18, N-[2-ethylsulfanyl-4-methyl-7-(trifluoromethyl)-quinolin-3-yl]-2-thiophen-2-yl-acetamide]: 94 nM, 140% and 43% @ 1.

Values taken from patent US8207342B2, “Substituted 3-amino-2-mercaptoquinolines as KCNQ2/3 modulators” (Gruenenthal GmbH, priority 2009, dated 2012).
